Measured values from patent publication US9012200B2, “Composition of bacterial strains, bioremediation mixture and use of this composition for the removal of contaminants from the soil and the method for purifying the soil contaminants” (priority 2012, dated 2015).
Values after ≈ are worked out from the molar mass of the structure shown. Where two headings read alike, the source gives them in different places.

What was measured:
[1] = tested on: Achromobacter sp. strain 4P; type: cell-based
[2] = tested on: Stenotrophomonas sp. strain 6L; type: cell-based
[3] = tested on: investigated strains of bacteria; type: cell-based
[4] = tested on: Pseudomonas sp. strain 4G; type: cell-based
[5] = tested on: model strain Escherichia coli; conditions: according to Spain, 2003; cited from earlier work
[6] = tested on: Stenotrophomonas sp. strain 3N; type: cell-based
[7] = tested on: Arthrobacter sp. strain 1N; type: cell-based
[8] = tested on: Brevundimonas sp. strain 2N; type: cell-based
[9] = tested on: Stenotrophomonas sp. strain 2L; type: cell-based
[10] = tested on: Pseudomonas sp. strain 3G; type: cell-based
[11] = tested on: Stenotrophomonas sp. strain 5L; type: cell-based
[12] = tested on: Brevundimonas sp. strain 5N; type: cell-based
[13] = tested on: Brevundimonas sp. strain 6N; type: cell-based
[14] = tested on: Brevundimonas sp. strain 2N; test: Antibiotic MIC by E-test; type: cell-based; conditions: 24 h
Procedure: (§1) A disc diffusion method was performed to determine the susceptibility of bacteria to the selected antibiotics. We used discs soaked with the antibiotic of a well-defined concentration (BioMerioux) (Table 2) and the minimal inhibitory concentration test was carried out, using E-tests (Oxoid) (Table 3).
(§2) In the next stage of the research, MIC values of a given antibiotic for the investigated strains were determined, meaning the lowest concentration of the drug, expressed in mg/L, determined in vitro, which inhibits the growth of bacteria at a defined inoculum density, within a given time (Hryniewicz et at, 2001). These studies allow for the closer determination of the degree of susceptibility of bacteria to the applied antibiotics.
(§3) A bacterial suspension was evenly distributed on dishes with ready-to-use MHA medium (Oxoid), and then plastic testing strips (E-tests) soaked with an antibiotic with a concentration gradient were placed thereon. The dishes were incubated at 25-30° C. for 24 h, and the test results were read after this time.
(§4) The intersection of elliptical zone of inhibition, which appeared around the test strip, with the value indicator on the gradient scale of the strip, determined the lowest concentration of antibiotic, inhibiting growth of the microorganism (MIC). Similarly as in the disc diffusion method, the obtained results were compared with the guidelines contained in the relevant standards.

[15] = tested on: Stenotrophomonas sp. strain 5L; test: Antibiotic MIC by E-test; type: cell-based; conditions: 24 h
Procedure: as §1, §2, §3, §4

[16] = tested on: Pseudomonas sp. strain 3G; test: Antibiotic MIC by E-test; type: cell-based; conditions: 24 h
Procedure: as §1, §2, §3, §4

[17] = tested on: Pseudomonas sp. strain 4G; test: Antibiotic MIC by E-test; type: cell-based; conditions: 24 h
Procedure: as §1, §2, §3, §4

[18] = tested on: Stenotrophomonas sp. strain 2L; test: Antibiotic MIC by E-test; type: cell-based; conditions: 24 h
Procedure: as §1, §2, §3, §4

[19] = tested on: Brevundimonas sp. strain 6N; test: Antibiotic MIC by E-test; type: cell-based; conditions: 24 h
Procedure: as §1, §2, §3, §4

[20] = tested on: Achromobacter sp. strain 4P; test: Antibiotic MIC by E-test; type: cell-based; conditions: strain 4P, E-test, 24 h
Procedure: as §1, §2, §3, §4

[21] = tested on: Stenotrophomonas sp. strain 6L; test: Antibiotic MIC by E-test; type: cell-based; conditions: 24 h
Procedure: as §1, §2, §3, §4

[22] = tested on: Brevundimonas sp. strain 5N; test: Antibiotic MIC by E-test; type: cell-based; conditions: 24 h
Procedure: as §1, §2, §3, §4

[23] = tested on: Arthrobacter sp. strain 1N; test: Antibiotic MIC by E-test; type: cell-based; conditions: strain 1N, E-test, 24 h
Procedure: as §1, §2, §3, §4

[24] = tested on: Stenotrophomonas sp. strain 3N; test: Antibiotic MIC by E-test; type: cell-based; conditions: 24 h
Procedure: as §1, §2, §3, §4

[25] = tested on: Brevundimonas sp. strain 2N; test: Disc diffusion antibiotic susceptibility; type: cell-based
Procedure: as §1
(§5) A McFarland's 0.5 inoculum was prepared from each strain's culture, using a densitometer (EMO). Then, using sterile cotton swabs, the suspension of bacterial cells was spread on dishes with ready-to-use MHA medium (Oxoid), and after 15 minutes, discs soaked with antibiotics at defined concentrations were placed on them.
(§6) The dishes were incubated at 25-30° C., and the results were read after 24 and 48 hours. The measure of susceptibility of a tested strain to a given antibiotic was the size of the inhibition zone which formed around the disc soaked with the antibiotic. The results read (sizes of zones measured in mm) were compared with the data contained in the European Committee on Antimicrobial Susceptibility Testing (EUCAST) standards from 2010 (Table 4).
(§7) The measure of susceptibility of the tested bacterial strain to a given antibiotic was the size of the inhibition zone which formed around the disc (Table 5).

[26] = tested on: Stenotrophomonas sp. strain 5L; test: Disc diffusion antibiotic susceptibility; type: cell-based
Procedure: as §1, §5, §6, §7

[27] = tested on: Pseudomonas sp. strain 3G; test: Disc diffusion antibiotic susceptibility; type: cell-based
Procedure: as §1, §5, §6, §7

[28] = tested on: Pseudomonas sp. strain 4G; test: Disc diffusion antibiotic susceptibility; type: cell-based
Procedure: as §1, §5, §6, §7

[29] = tested on: Stenotrophomonas sp. strain 2L; test: Disc diffusion antibiotic susceptibility; type: cell-based
Procedure: as §1, §5, §6, §7

[30] = tested on: Brevundimonas sp. strain 6N; test: Disc diffusion antibiotic susceptibility; type: cell-based
Procedure: as §1, §5, §6, §7

[31] = tested on: Achromobacter sp. strain 4P; test: Disc diffusion antibiotic susceptibility; type: cell-based
Procedure: as §1, §5, §6, §7

[32] = tested on: Stenotrophomonas sp. strain 6L; test: Disc diffusion antibiotic susceptibility; type: cell-based
Procedure: as §1, §5, §6, §7

[33] = tested on: Brevundimonas sp. strain 5N; test: Disc diffusion antibiotic susceptibility; type: cell-based
Procedure: as §1, §5, §6, §7

[34] = tested on: Arthrobacter sp. strain 1N; test: Disc diffusion antibiotic susceptibility; type: cell-based
Procedure: as §1, §5, §6, §7

[35] = tested on: Stenotrophomonas sp. strain 3N; test: Disc diffusion antibiotic susceptibility; type: cell-based
Procedure: as §1, §5, §6, §7

[36] = Brevundimonas, read-out: MIC threshold values for a given antibiotic
[37] = Stenotrophomonas, read-out: MIC threshold values for a given antibiotic
[38] = Pseudomonas, read-out: MIC threshold values for a given antibiotic

## [Cl][Ni][Cl] [Ni(II), Nickel chloride]
[1]; strain 4P, 24 h
  MIC threshold values of heavy metals: 1 mM/L
[2]; strain 6L, 24 h
  MIC threshold values of heavy metals: 1 mM/L
[2]; strain 6L, 48 h
  MIC threshold values of heavy metals: 2 mM/L
[3]; compared with literature data for the model strain
  Susceptibility of the investigated strains to the heavy metal: semi-susceptible
[4]; 24 h
  MIC threshold values of heavy metals: 1 mM/L
[4]; 48 h
  MIC threshold values of heavy metals: 2 mM/L
[5]
  MIC: 1 mM/L
[6]; strain 3N, 24 h
  MIC threshold values of heavy metals: 1 mM/L
[6]; strain 3N, 48 h
  MIC threshold values of heavy metals: 2 mM/L
[7]; strain 1N, 24 h
  MIC threshold values of heavy metals: 1 mM/L
[7]; strain 1N, 48 h
  MIC threshold values of heavy metals: 2 mM/L
[8]; strain 2N, 24 h
  MIC threshold values of heavy metals: 1 mM/L
[8]; strain 2N, 48 h
  MIC threshold values of heavy metals: 2 mM/L
[9]; strain 2L, 24 h
  MIC threshold values of heavy metals: 1 mM/L
[10]; 24 h
  MIC threshold values of heavy metals: 1 mM/L
[10]; 48 h
  MIC threshold values of heavy metals: 2 mM/L
[11]; strain 5L, 24 h
  MIC threshold values of heavy metals: 1 mM/L
[12]; strain 5N, 24 h
  MIC threshold values of heavy metals: 1 mM/L
[13]; strain 6N, 24 h
  MIC threshold values of heavy metals: 1 mM/L
[13]; strain 6N, 48 h
  MIC threshold values of heavy metals: 2 mM/L

## CN(C)[C@@H]1C(O)=C(C(N)=O)C(=O)[C@@]2(O)C(O)=C3C(=O)c4c(O)cccc4[C@@](C)(O)[C@H]3C[C@@H]12 [TE, tetracycline]
[14]; [36]
  MIC: 6 µg/mL (≈ 13.5 µM)
[15]; [37]
  MIC: 8 µg/mL (≈ 18 µM)
[16]; [38]
  MIC: 6 µg/mL (≈ 13.5 µM)
[17]; [38]
  MIC: 6 µg/mL (≈ 13.5 µM)
[18]; [37]
  MIC: 6 µg/mL (≈ 13.5 µM)
[19]; [36]
  MIC: 6 µg/mL (≈ 13.5 µM)
[20]; Achromobacter, read-out: MIC threshold values for a given antibiotic
  MIC: 12 µg/mL (≈ 27 µM)
[21]; [37]
  MIC: 6 µg/mL (≈ 13.5 µM)
[22]; [36]
  MIC: 6 µg/mL (≈ 13.5 µM)
[23]; Arthrobacter, read-out: MIC threshold values for a given antibiotic
  MIC: 6 µg/mL (≈ 13.5 µM)
[24]; [37]
  MIC: 6 µg/mL (≈ 13.5 µM)
[25]; 24 h
  Size of the growth inhibition zone: 18 mm
[25]; 48 h
  Size of the growth inhibition zone: 0 mm
[26]; 24 h
  Size of the growth inhibition zone: 19 mm
[26]; 48 h
  Size of the growth inhibition zone: 0 mm
[27]; 24 h
  Size of the growth inhibition zone: 17 mm
[27]; 48 h
  Size of the growth inhibition zone: 0 mm
[28]; 24 h
  Size of the growth inhibition zone: 19 mm
[28]; 48 h
  Size of the growth inhibition zone: 0 mm
[29]; 24 h
  Size of the growth inhibition zone: 17 mm
[29]; 48 h
  Size of the growth inhibition zone: 0 mm
[30]; 24 h
  Size of the growth inhibition zone: 17 mm
[30]; 48 h
  Size of the growth inhibition zone: 0 mm
[31]; 24 h
  Size of the growth inhibition zone: 19 mm
[31]; 48 h
  Size of the growth inhibition zone: 0 mm
[32]; 24 h
  Size of the growth inhibition zone: 17 mm
[32]; 48 h
  Size of the growth inhibition zone: 0 mm
[33]; 24 h
  Size of the growth inhibition zone: 18 mm
[33]; 48 h
  Size of the growth inhibition zone: 0 mm
[34]; 24 h
  Size of the growth inhibition zone: 17 mm
[34]; 48 h
  Size of the growth inhibition zone: 0 mm
[35]; 24 h
  Size of the growth inhibition zone: 19 mm
[35]; 48 h
  Size of the growth inhibition zone: 0 mm

## O=S(=O)([O-])[O-].[Zn+2] [Zn(II), Zinc sulphate]
[1]
  MIC threshold values of heavy metals: 3(5) mM/L
[2]
  MIC threshold values of heavy metals: 4(5) mM/L
[3]
  Susceptibility of the investigated strains to the heavy metal: resistant
[4]; 24 h
  MIC threshold values of heavy metals: 4 mM/L
[5]
  MIC: 1 mM/L
[6]
  MIC threshold values of heavy metals: 3(4) mM/L
[7]
  MIC threshold values of heavy metals: 4 mM/L
[8]
  MIC threshold values of heavy metals: 3(4) mM/L
[9]
  MIC threshold values of heavy metals: 3(4) mM/L
[10]; 24 h
  MIC threshold values of heavy metals: 4 mM/L
[11]
  MIC threshold values of heavy metals: 4(5) mM/L
[12]
  MIC threshold values of heavy metals: 2(4) mM/L
[13]
  MIC threshold values of heavy metals: 2(3) mM/L

## gentamicin [CN]
[14]
  MIC threshold values for a given antibiotic: 8 µg/mL
[15]
  MIC threshold values for a given antibiotic: 8 µg/mL
[16]
  MIC threshold values for a given antibiotic: ≧256 μg/ml
[17]
  MIC threshold values for a given antibiotic: ≧256 μg/ml
[18]
  MIC threshold values for a given antibiotic: 4 µg/mL
[19]
  MIC threshold values for a given antibiotic: 8 µg/mL
[20]
  MIC threshold values for a given antibiotic: 4 µg/mL
[21]
  MIC threshold values for a given antibiotic: 256 µg/mL
[22]
  MIC threshold values for a given antibiotic: 4 µg/mL
[23]
  MIC threshold values for a given antibiotic: 8 µg/mL
[24]
  MIC threshold values for a given antibiotic: 8 µg/mL
[25]; 24 h
  Size of the growth inhibition zone: 24 mm
[25]; 48 h
  Size of the growth inhibition zone: 21 mm
[26]; 24 h
  Size of the growth inhibition zone: 22 mm
[27]; 24 h
  Size of the growth inhibition zone: 22 mm
[27]; 48 h
  Size of the growth inhibition zone: 20 mm
[28]; 24 h
  Size of the growth inhibition zone: 0 mm
[29]; 24 h
  Size of the growth inhibition zone: 24 mm
[29]; 48 h
  Size of the growth inhibition zone: 19 mm
[30]; 24 h
  Size of the growth inhibition zone: 23 mm
[30]; 48 h
  Size of the growth inhibition zone: 20 mm
[31]; 24 h
  Size of the growth inhibition zone: 22 mm
[31]; 48 h
  Size of the growth inhibition zone: 21 mm
[32]; 24 h
  Size of the growth inhibition zone: 0 mm
[33]; 24 h
  Size of the growth inhibition zone: 24 mm
[34]; 24 h
  Size of the growth inhibition zone: 23 mm
[34]; 48 h
  Size of the growth inhibition zone: 18 mm
[35]; 24 h
  Size of the growth inhibition zone: 25 mm
[35]; 48 h
  Size of the growth inhibition zone: 0 mm
